Reference: patent publication US10100045B2, “3-aryl-2H-pyrazolo[4,3-b]pyridine compounds and their use as AMPA receptor modulators” (Janssen Pharmaceutica NV, priority 2016, dated 2018)

These compounds were tested against GluA1o-γ8 (GRIA1o-CACNG8 fusion construct; TARP γ8 dependent AMPA receptor) (Homo sapiens (Human), UniProt P42261+Q8WXS5) (assay: Calcium flux assay (FLIPR), inhibition of glutamate response of GluA1o-γ8 channel). Details: HEK293 cells stably expressing GRIA1o-CACNG8 fusion; 15 μM glutamate; negative log of the IC50 in molar.
Type: cell-based
Source text: This assay was used to test compounds for their ability to inhibit TARP γ8 dependent AMPA receptor activity. The AMPA receptor is a non-selective cation channel activated by glutamate. Ionotropic glutamate receptors normally desensitize too rapidly to allow detectable calcium influx in a FLIPR assay (Strange et al. (2006). “Functional characterisation of homomeric ionotropic glutamate receptors GluR1-GluR6 in a fluorescence-based high throughput screening assay.” Comb Chem High Throughput Screen 9(2): 147-158). But, this desensitization is incomplete, and a substantial steady-state current remains in the sustained presence of glutamate (Cho et al. (2007). “Two families of TARP isoforms that have distinct effects on the kinetic properties of AMPA receptors and synaptic currents.” Neuron 55(6): 890-904). An in vitro assay was used to determine the potency of test compounds as inhibitors of the glutamate response of the channel formed by GluA1o-γ8. To ensure a 1:1 stoichiometry of GluA1o and γ8 subunits in the expressed channel, a fusion of the cDNAs for GRIA1o and CACNG8 was used. Following Shi et al (2009) “The stoichiometry of AMPA receptors and TARPs varies by neuronal cell type.” Neuron 62(5): 633-640), the C-terminus of the cDNA for GRIA1o was fused to the N-terminus of the cDNA for γ8. The linker sequence was QQQQQQQQQQEFAT. Channels expressed with this construct appear to have similar properties to channels formed by co-expression of GRIA1o with an excess of CACNG8 (Shi et al. 2009). A clonal cell line in HEK293 cells stably expressing this construct, with a geneticin selection marker, was generated for use in this assay.
Cell expressing the GRIA1o-CACNG8 fusion construct were grown in a monolayer in 96- or 384-well microtiter plates. They were washed with assay buffer (135 mM NaCl, 4 mM KCl, 3 mM CaCl2, 1 mM MgCl2, 5 mM glucose, 10 mM HEPES, pH 7.4, 300 mOs) using a Biotek EL405 plate washer. The cells were then loaded with a calcium-sensitive dye (Calcium-5 or Calcium-6, Molecular Devices) and the test compounds at a range of concentrations. Calcium flux following the addition of 15 μM glutamate was monitored using a Molecular Devices FLIPR Tetra. The fluorescence in each well was normalized to the fluorescence of negative and positive control wells. The negative control wells had no added compounds, and the positive control wells had been incubated with 10 μM CP465022 (a non-subtype-selective AMPA receptor antagonist) (Lazzaro et al. (2002). “Functional characterization of CP-465,022, a selective, noncompetitive AMPA receptor antagonist.” Neuropharmacology 42(2): 143-153). The responses to glutamate as functions of the test compound concentrations were fitted to a four-parameter logistic function. The fitted parameter corresponding to the midpoint was taken to be the potency of inhibition of the compound. The data in Table 3 below illustrates the observed potentcy for the compounds described herein. pIC50 refers to the negative log of the IC50 in molar.

GluA1o-γ8 (GRIA1o-CACNG8 fusion construct; TARP γ8 dependent AMPA receptor), sequence (P42261 other isoform, or with tags, fused parts or gaps): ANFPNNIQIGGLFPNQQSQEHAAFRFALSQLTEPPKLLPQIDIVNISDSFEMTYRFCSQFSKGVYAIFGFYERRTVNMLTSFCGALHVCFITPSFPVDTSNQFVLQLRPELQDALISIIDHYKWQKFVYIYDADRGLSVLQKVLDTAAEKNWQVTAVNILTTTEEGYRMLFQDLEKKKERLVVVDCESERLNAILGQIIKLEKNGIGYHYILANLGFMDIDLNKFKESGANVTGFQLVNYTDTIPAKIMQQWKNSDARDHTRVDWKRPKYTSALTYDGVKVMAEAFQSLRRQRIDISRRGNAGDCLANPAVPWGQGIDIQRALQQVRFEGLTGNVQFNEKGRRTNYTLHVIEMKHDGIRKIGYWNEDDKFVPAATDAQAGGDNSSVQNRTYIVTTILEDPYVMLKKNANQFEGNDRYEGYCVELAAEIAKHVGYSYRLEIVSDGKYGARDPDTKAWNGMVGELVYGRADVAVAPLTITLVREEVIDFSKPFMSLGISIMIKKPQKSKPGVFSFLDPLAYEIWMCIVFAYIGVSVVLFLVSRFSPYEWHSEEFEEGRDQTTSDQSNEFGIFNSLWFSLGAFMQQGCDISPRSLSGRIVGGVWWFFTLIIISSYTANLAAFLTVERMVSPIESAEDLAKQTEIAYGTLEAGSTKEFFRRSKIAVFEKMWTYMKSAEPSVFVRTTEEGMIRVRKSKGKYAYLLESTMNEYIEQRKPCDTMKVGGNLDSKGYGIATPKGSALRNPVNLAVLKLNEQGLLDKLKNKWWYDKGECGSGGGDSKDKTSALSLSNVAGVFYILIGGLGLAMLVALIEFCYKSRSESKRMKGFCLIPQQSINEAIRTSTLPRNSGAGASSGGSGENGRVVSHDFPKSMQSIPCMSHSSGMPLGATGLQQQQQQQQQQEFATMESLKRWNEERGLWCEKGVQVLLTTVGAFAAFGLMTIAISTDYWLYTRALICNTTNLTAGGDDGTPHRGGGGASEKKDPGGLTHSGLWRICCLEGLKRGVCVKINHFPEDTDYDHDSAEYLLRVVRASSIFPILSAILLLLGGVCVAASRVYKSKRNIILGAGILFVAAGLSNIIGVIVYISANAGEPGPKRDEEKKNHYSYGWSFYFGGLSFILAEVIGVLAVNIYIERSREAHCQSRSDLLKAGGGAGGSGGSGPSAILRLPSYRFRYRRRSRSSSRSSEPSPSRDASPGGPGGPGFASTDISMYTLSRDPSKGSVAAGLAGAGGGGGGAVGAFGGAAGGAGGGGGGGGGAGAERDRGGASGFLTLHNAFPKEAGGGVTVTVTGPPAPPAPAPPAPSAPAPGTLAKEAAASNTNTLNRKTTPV

| pIC50 | IC50 | Structure (SMILES) |
| --- | --- | --- |
| 6.5 |  | Cn1nc2ccc(C(F)(F)F)nc2c1-c1ccc2[nH]c(=O)[nH]c2c1 [Example 1, 5-(2-Methyl-5-(trifluoromethyl)-2H-pyrazolo[4,3-b]pyridin-3-yl)-1,3-dihydro-2H-benzo[d]imidazol-2-one] |
| 7.9 |  | Cc1cc(-c2c3nc(C(F)(F)F)ccc3nn2C)cc2c1NC(=O)C2 [Example 2, 7-Methyl-5-(2-methyl-5-(trifluoromethyl)-2H-pyrazolo[4,3-b]pyridin-3-yl)indolin-2-one] |
| 9.0 |  | Cc1cc(-c2c3nc(C(F)(F)F)ccc3nn2C(F)F)cc2c1NC(=O)C2 [Example 3, 5-[2-(Difluoromethyl)-5-(trifluoromethyl)pyrazolo[4,3-b]pyridin-3-yl]-7-methyl-indolin-2-one] |
| 7.0 |  | CCn1nc2ccc(C(F)(F)F)nc2c1-c1ccc2[nH]c(=O)[nH]c2c1 [Example 4, 5-(2-Ethyl-5-(trifluoromethyl)-2H-pyrazolo[4,3-b]pyridin-3-yl)-1,3-dihydro-2H-benzo[d]imidazol-2-one] |
| 7.6 |  | CC(C)n1nc2ccc(C(F)(F)F)nc2c1-c1ccc2[nH]c(=O)[nH]c2c1 [Example 5, 5-(2-Isopropyl-5-(trifluoromethyl)-2H-pyrazolo[4,3-b]pyridin-3-yl)-1,3-dihydro-2H-benzo[d]imidazol-2-one] |
| 6.9 |  | O=c1[nH]c2ccc(-c3c4nc(C(F)(F)F)ccc4nn3CC3CCC3)cc2[nH]1 [Example 6, 5-(2-(Cyclobutylmethyl)-5-(trifluoromethyl)-2H-pyrazolo[4,3-b]pyridin-3-yl)-1,3-dihydro-2H-benzo[d]imidazol-2-one] |
| 7.8 |  | O=c1[nH]c2ccc(-c3c4nc(C(F)(F)F)ccc4nn3C3CCCC3)cc2[nH]1 [Example 7, 5-(2-Cyclopentyl-5-(trifluoromethyl)-2H-pyrazolo[4,3-b]pyridin-3-yl)-1,3-dihydro-2H-benzo[d]imidazol-2-one] |
| 9.9 |  | Cc1cc(-c2c3nc(C(F)(F)F)ccc3nn2C2CCCC2)cc2cn[nH]c12 [Example 8, 2-Cyclopentyl-3-(7-methyl-1H-indazol-5-yl)-5-(trifluoromethyl)-2H-pyrazolo[4,3-b]pyridine] |
| 8.8 |  | O=c1[nH]c2ccc(-c3c4nc(C(F)(F)F)ccc4nn3-c3ccccc3)cc2[nH]1 [Example 9, 5-(2-Phenyl-5-(trifluoromethyl)-2H-pyrazolo[4,3-b]pyridin-3-yl)-1,3-dihydro-2H-benzo[d]imidazol-2-one] |
| 8.2 |  | O=C1Cc2cc(-c3c4nc(C(F)(F)F)ccc4nn3-c3ccccc3)ccc2N1 [Example 10, 5-(2-Phenyl-5-(trifluoromethyl)-2H-pyrazolo[4,3-b]pyridin-3-yl)indolin-2-one] |
| 8.5 |  | FC(F)(F)c1ccc2nn(-c3ccccc3)c(-c3ccc4[nH]ncc4c3)c2n1 [Example 11, 3-(1H-Indazol-5-yl)-2-phenyl-5-(trifluoromethyl)-2H-pyrazolo[4,3-b]pyridine] |
| 9.2 |  | FC(F)(F)c1ccc2nn(C3CCC3)c(-c3ccc4[nH]ncc4c3)c2n1 [Example 12, 2-Cyclobutyl-3-(1H-indazol-5-yl)-5-(trifluoromethyl)-2H-pyrazolo[4,3-b]pyridine] |
| 6.1 |  | COCCn1nc2ccc(C(F)(F)F)nc2c1-c1ccc2[nH]ncc2c1 [Example 13, 3-(1H-Indazol-5-yl)-2-(2-methoxyethyl)-5-(trifluoromethyl)-2H-pyrazolo[4,3-b]pyridine] |
| 6.9 |  | FC(F)(F)c1ccc2nn(-c3ccccn3)c(-c3ccc4[nH]ncc4c3)c2n1 [Example 14, 3-(1H-Indazol-5-yl)-2-(pyridin-2-yl)-5-(trifluoromethyl)-2H-pyrazolo[4,3-b]pyridine] |
| 9.0 |  | Cc1cc(-c2c3nc(C(F)(F)F)ccc3nn2C)cc2cn[nH]c12 [Example 15, 2-Methyl-3-(7-methyl-1H-indazol-5-yl)-5-(trifluoromethyl)-2H-pyrazolo[4,3-b]pyridine] |
| 9.5 |  | Cn1nc2ccc(C(F)(F)F)nc2c1-c1cc(Cl)c2[nH]ncc2c1 [Example 16, 3-(7-Chloro-1H-indazol-5-yl)-2-methyl-5-(trifluoromethyl)-2H-pyrazolo[4,3-b]pyridine] |

| pIC50 | IC50 | Structure (SMILES) |
| --- | --- | --- |
| 8.3 |  | CCn1nc2ccc(C(F)(F)F)nc2c1-c1cc(C)c2c(c1)CC(=O)N2 [Example 17, 5-(2-Ethyl-5-(trifluoromethyl)-2H-pyrazolo[4,3-b]pyridin-3-yl)-7-methylindolin-2-one] |
| 8.6 |  | CCn1nc2ccc(C(F)(F)F)nc2c1-c1cc(Cl)c2c(c1)CC(=O)N2 [Example 18, 7-Chloro-5-(2-ethyl-5-(trifluoromethyl)-2H-pyrazolo[4,3-b]pyridin-3-yl)indolin-2-one] |
|  | 0.794 nM | CCn1nc2ccc(C(F)(F)F)nc2c1-c1cc(C)c2[nH]ncc2c1 [Example 19, 2-Ethyl-3-(7-methyl-1H-indazol-5-yl)-5-(trifluoromethyl)-2H-pyrazolo[4,3-b]pyridine] |
| 9.4 |  | CCn1nc2ccc(C(F)(F)F)nc2c1-c1cc(Cl)c2[nH]ncc2c1 [Example 20, 3-(7-Chloro-1H-indazol-5-yl)-2-ethyl-5-(trifluoromethyl)-2H-pyrazolo[4,3-b]pyridine] |
| 9.4 |  | Cc1cc(-c2c3nc(C(F)(F)F)ccc3nn2C(C)C)cc2c1NC(=O)C2 [Example 21, 5-(2-Isopropyl-5-(trifluoromethyl)-2H-pyrazolo[4,3-b]pyridin-3-yl)-7-methylindolin-2-one] |
| 9.6 |  | CC(C)n1nc2ccc(C(F)(F)F)nc2c1-c1cc(Cl)c2c(c1)CC(=O)N2 [Example 22, 7-Chloro-5-(2-isopropyl-5-(trifluoromethyl)-2H-pyrazolo[4,3-b]pyridin-3-yl)indolin-2-one] |
| 9.6 |  | Cc1cc(-c2c3nc(C(F)(F)F)ccc3nn2C(C)C)cc2cn[nH]c12 [Example 23, 2-Isopropyl-3-(7-methyl-1H-indazol-5-yl)-5-(trifluoromethyl)-2H-pyrazolo[4,3-b]pyridine] |
| 10.2 |  | CC(C)n1nc2ccc(C(F)(F)F)nc2c1-c1cc(Cl)c2[nH]ncc2c1 [Example 24, 3-(7-Chloro-1H-indazol-5-yl)-2-isopropyl-5-(trifluoromethyl)-2H-pyrazolo[4,3-b]pyridine] |
| 10.3 |  | Cc1cc(-c2c3nc(C(F)(F)F)ccc3nn2C2CCC2)cc2c1NC(=O)C2 [Example 25, 5-(2-Cyclobutyl-5-(trifluoromethyl)-2H-pyrazolo[4,3-b]pyridin-3-yl)-7-methylindolin-2-one] |
| 10.5 |  | O=C1Cc2cc(-c3c4nc(C(F)(F)F)ccc4nn3C3CCC3)cc(Cl)c2N1 [Example 26, 7-Chloro-5-(2-cyclobutyl-5-(trifluoromethyl)-2H-pyrazolo[4,3-b]pyridin-3-yl)indolin-2-one] |
| 10.7 |  | Cc1cc(-c2c3nc(C(F)(F)F)ccc3nn2C2CCC2)cc2cn[nH]c12 [Example 27, 2-Cyclobutyl-3-(7-methyl-1H-indazol-5-yl)-5-(trifluoromethyl)-2H-pyrazolo[4,3-b]pyridine] |
| 10.7 |  | FC(F)(F)c1ccc2nn(C3CCC3)c(-c3cc(Cl)c4[nH]ncc4c3)c2n1 [Example 28, 3-(7-Chloro-1H-indazol-5-yl)-2-cyclobutyl-5-(trifluoromethyl)-2H-pyrazolo[4,3-b]pyridine] |
| 8.6 |  | O=C1Cc2cc(-c3c4nc(C(F)(F)F)ccc4nn3C(F)F)cc(Cl)c2N1 [Example 29, 7-Chloro-5-(2-(difluoromethyl)-5-(trifluoromethyl)-2H-pyrazolo[4,3-b]pyridin-3-yl)indolin-2-one] |
| 9.2 |  | Cc1cc(-c2c3nc(C(F)(F)F)ccc3nn2C(F)F)cc2cn[nH]c12 [Example 30, 2-(Difluoromethyl)-3-(7-methyl-1H-indazol-5-yl)-5-(trifluoromethyl)-2H-pyrazolo[4,3-b]pyridine] |
| 9.2 |  | FC(F)n1nc2ccc(C(F)(F)F)nc2c1-c1cc(Cl)c2[nH]ncc2c1 [Example 31, 3-(7-Chloro-1H-indazol-5-yl)-2-(difluoromethyl)-5-(trifluoromethyl)-2H-pyrazolo[4,3-b]pyridine] |
